US6451361B1, “Alkali metal magnesium phosphate hydrate buffering feed mineral” (Agri-Nutrients Technology Group, Inc., priority 2001, dated 2002)
Like-named read-outs stand apart in the source and are kept apart here.

Legend:
[1] = tested on: rumen juices of a ruminant animal; conditions: steer, 50 lbs/day ration, three days on ration
Source text: A ruminating steer weighing about 1100 pounds which had been fistulated so that rumen fluid samples could be withdrawn as desired for pH measurement was used in experiments in which the steer was fed a constant high energy ration typical of a finishing feedlot ration. The only change in the rations were in the types and amounts of buffering agent used. The buffering agents were blended into the feed ration prior to its use. The fistulated steer received the same buffered feed ration for three days prior to sampling the rumen fluid and determining pH.

[2] = Buffer capacity by titration to pH 6 with 0.1N hydrochloric acid; type: physicochemical
Source text: (§1) The example compares performance of compositions of the instant invention with sodium bicarbonate, with regard to original pH, and amount of acid buffered to pH 6. One gram of buffering agent was mixed with 100 grams water and titrated to pH 6 by 0.1N hydrochloric acid.

[3] = pH of buffering agent in water; type: physicochemical
Source text: Materials frequently used in the art to buffer digestive fluids are sodium bicarbonate and magnesium oxide. […] Over-treatment with buffer may be caused by errors in estimates of animal size, and the composition of the digestive fluid and by errors in measuring the amounts of the buffering material.
as §1

[4] = tested on: newly hatched broiler chicks; assay: 21-day broiler chick feeding test of phosphorus bioavailability and weight gain; type: in vivo; conditions: 21 days
Description: The tests were conducted at a University Test Facility starting with newly hatched broiler chicks. The test was carried out over a 21-day period. Weight gain was measured in each group of 10 chicks. Also measured at the end of the test were weight gain/weight of feed, weight percent ash in the tibia, and the relative bioavailability.
Measurements were made comparing the results obtained with the test material and the Standard NRC technical grade hydrous dibasic calcium phosphate.

Q: What does the source list for O=C([O-])O.[Na+] [NaHCO3, sodium bicarbonate]?
A: pH of Rumen Sample ([1]; buffer amount 0.5/1.00 lbs/%): 6.7; pH of Rumen Sample ([1]; buffer amount 0.8/1.60 lbs/%): 7.4; Buffer Capacity m.eg. of HCl brought to pH per gram compound ([2]; 1 gram in 100 grams water, titrated to pH 6 by 0.1N hydrochloric acid): 10.0 m.eg. of HCl per gram compound; speed of changes in pH when combined with aqueous acid ([2]; during titration with 0.1N hydrochloric acid): about instant; pH of Buffer 5% in H2O [3]: 9.0

Q: Which results are given for “hydrous dibasic calcium phosphate [Standard Phosphorus Source]”?
A: Ash Content of Tibia, Wt % ([4]; Added P in feed 0.15 Wt %): 40.5 Wt %; Avg. Wt. Gain, Gms ([4]; Added P in feed 0.15 Wt %): 639.6 Gms; Wt. Gain, gms per grm feed ([4]; Added P in feed 0.15 Wt %): 0.688 gms per grm feed; Ash Content of Tibia, Wt % ([4]; Added P in feed 0.25 Wt %): 41.5 Wt %; Avg. Wt. Gain, Gms ([4]; Added P in feed 0.25 Wt %): 664.6 Gms; Wt. Gain, gms per grm feed ([4]; Added P in feed 0.25 Wt %): 0.725 gms per grm feed; Ash Content of Tibia, Wt % ([4]; Added P in feed 0.35 Wt %): 42.5 Wt %; Avg. Wt. Gain, Gms ([4]; Added P in feed 0.35 Wt %): 667.7 Gms; Wt. Gain, gms per grm feed ([4]; Added P in feed 0.35 Wt %): 0.722 gms per grm feed
